Structures can show the parent of a compound that is named as a salt. Where two headings read alike, the source gives them in different places.
Biological target: T1, CBS (Homo sapiens, UniProt P35520)
T1 sequence (P35520 1-551): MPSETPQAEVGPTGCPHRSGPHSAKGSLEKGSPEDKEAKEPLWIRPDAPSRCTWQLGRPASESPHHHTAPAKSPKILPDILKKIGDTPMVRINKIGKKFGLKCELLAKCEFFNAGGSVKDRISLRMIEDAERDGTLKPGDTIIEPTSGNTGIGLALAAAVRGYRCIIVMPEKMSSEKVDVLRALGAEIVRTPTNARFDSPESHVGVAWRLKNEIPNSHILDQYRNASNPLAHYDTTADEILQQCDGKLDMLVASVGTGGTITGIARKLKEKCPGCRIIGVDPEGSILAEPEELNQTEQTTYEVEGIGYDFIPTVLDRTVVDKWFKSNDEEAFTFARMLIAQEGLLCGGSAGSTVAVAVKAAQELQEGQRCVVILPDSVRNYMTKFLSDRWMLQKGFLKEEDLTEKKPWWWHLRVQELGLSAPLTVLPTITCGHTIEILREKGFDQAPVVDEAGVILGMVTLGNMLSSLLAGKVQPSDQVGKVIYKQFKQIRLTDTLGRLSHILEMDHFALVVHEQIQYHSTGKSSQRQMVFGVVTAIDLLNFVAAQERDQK
Assay: CBS inhibitor screen: H2S production by recombinant CBS (methylene blue assay)
Type: biochemical
Set-up: These studies used full-length human CBS enzyme; made in house; host or cells: E. coli BL21 (DE3) Codon Plus
Settings: for inhibition at 100 µM: read-out: Inhibition of CBS activity at 100 μM
Text: Studies have been performed characterizing, in detail, the specificity and selectivity of all known H2S biosynthesis inhibitors, using recombinant CBS and CSE enzymes. These studies used full-length human CBS enzyme, and a colorimetric ‘capture’ reaction of the H2S produced by these enzymes, an assay generally known as the ‘methylene blue assay’. This assay is used in a 96-well plate format, as well as in combination with a second screening method based on a fluorescent dye.
Human recombinant CBS is expressed as described (Asimakopoulou et al, (2013) Br J Pharmacol. 169(4):922-32). A library of pharmacologically active compounds (e.g., LOPAC library, Sigma; 1240 compounds) is tested on homocysteine-induced H2S production. In certain aspects the assay is in a 96-well format. In certain aspects H2S production is measured by the methylene blue assay (Asimakopoulou et al., (2013) Br J Pharmacol. 169(4):922-32).
Plasmids, bacterial strains and media. E. coli BL21 (DE3) Codon Plus is used as a host strain to express recombinant human CSE or CBS. CSE cDNA was cloned into pGEX-4T3 and CBS into pGEX-Kg to create N-terminal GSH-S-transferase (GST) fusion proteins. The expression vectors were transformed and plated on LB-agar plates, supplemented with ampicillin (100 μg/mL).
The expression and purification of CSE and CBS is performed as described previously with modifications (Frank et al., (2008) Arch Biochem Biophys 470:64-72; Huang et al., (2009) J Mol Biol 396: 708-18). Briefly, BL21(DE3) Codon Plus cells containing either the expression vector pGEX-4T3/GST-CSE or pGEX-Kg/GST-CBS are grown at 37° C. and 180 r.p.m. in LB broth medium containing 100 μg/mL ampicillin to an absorption of 0.6-0.8 at 600 nm. In addition, 0.3 mM d-ALA is added to the culture containing pGEX-Kg/GST-CBS. Then protein expression is induced by addition of 0.1 mM IPTG. Cells containing pGEX-4T-3/GST-CSE are incubated overnight at 18° C., whereas cells containing pGEXKg/GST-CBS are incubated overnight at 30° C. Culture is then centrifuged at 4° C. and 5000×g for 10 min and the cell pellet was resuspended in PBS (140 mM NaCl, 2.7 mM KCl, 10 mM Na2HPO4, 1.8 mM KH2PO4, pH 7.8) and stored at −20° C. overnight. After thawing, the suspension is sonicated in lysis buffer containing PBS and protease inhibitor cocktail for GST-CSE and PBS, 5 mM DTT, 1% Triton X-100, […] and protease inhibitor cocktail for GST-CBS. After centrifugation at 4° C. for 30 min, the soluble fraction containing either the GST-CSE or the GST-CBS recombinant protein is loaded onto a GSTrap FF 1 mL affinity column that has been equilibrated with binding buffer PBS. The column was consecutively washed with five column volumes of binding buffer. Proteins attached to the column, including GST-CSE or GST-CBS recombinant proteins, are eluted with five column volumes of elution buffer (50 mM Tris-HCl, 10 mM reduced GSH, pH 8.0) and then dialysed and concentrated in 10 mM sodium phosphate buffer pH 8.2 and DTT 1 mM. The purity of the recombinant enzymes was checked by SDS-PAGE on 12% polyacrylamide gels after staining of protein bands with Coomassie Blue R-250. Protein concentration was determined using the DC protein assay kit.
H2S determination is performed according to Stipanuk and Beck ((1982) Biochem J 206:267-77) with some modifications. In the case of the CSE enzyme, an assay consist of a 100 μL reaction mixture containing 5 μg of the purified CSE enzyme, 0.01 mM PLP, 1 mM L-cys, and 50 mM sodium phosphate buffer pH 8.2. For the CBS enzyme, the reaction mixture contains the same as for the CSE plus 1 mM homocysteine. The inhibitors can be added to the reaction before L-cys is added to the solution. Reactions are initiated by transferring the reaction solutions from ice to a 37° C. shaking water bath. After incubation at 37° C. the reaction is terminated by adding 1% ZnAc to trap H2S followed by 10% TCA to precipitate proteins. […]

[1] = 100 μM, homocysteine-induced H2S production, LOPAC library screen

| Compound | inhibition at 100 µM [1] [%] | further results |
| --- | --- | --- |
| CN1CC[C@@]2(C)c3cc(O)ccc3N(C)[C@@H]12.O=C(O)/C=C/C(=O)O [Eseroline fumarate] |  | Inhibition of CBS activity at 100 μM [1]: 60% |
| CC(C)C(=O)c1c(C(C)C)nn2ccccc12 [Ibudilast] | 30 |  |
| CC(C)=CC[C@@H](O)C1=CC(=O)c2c(O)ccc(O)c2C1=O [Shikonin] | 51 |  |
| CCC1(c2ccccc2)NC(=O)N(C)C1=O (centres unmarked) [Mephenytoin] | 32 |  |
| C[C@]12CC[C@@H]3c4ccc(O)cc4CC[C@H]3[C@@H]1CC[C@@H]2O [Estradiol] | 53 |  |
| Cc1cc(C(C#N)c2ccc(Cl)cc2)c(Cl)cc1NC(=O)c1cc(I)cc(I)c1O (centres unmarked) [Closantel] | 72 |  |
| C=C1CC[C@H](O)C/C1=C/C=C1\CCC[C@]2(C)[C@@H]([C@H](C)CCCC(C)(C)O)CC[C@@H]12 [Calcifediol] | 32 |  |
| CC[N+](C)(CC)CCC[n+]1c(-c2ccccc2)c2cc(N)ccc2c2ccc(N)cc21.[I-].[I-] [Propidium iodide] |  | Inhibition of CBS activity at 100 μM [1]: 41% |
| CC(C)(Sc1ccc(CCN(CCCCC2CCCCC2)C(=O)NC2CCCCC2)cc1)C(=O)O [GW7647] | 73 |  |
| O=C1Nc2ccc(I)cc2/C1=C/c1cc(Br)c(O)c(Br)c1 [GW5074] |  | Inhibition of CBS activity at 100 μM [1]: 87% |
| Cc1ccc(C(=O)Nc2ccc(S(=O)(=O)O)c3cc(S(=O)(=O)O)cc(S(=O)(=O)O)c23)cc1NC(=O)c1cccc(NC(=O)Nc2cccc(C(=O)Nc3cc(C(=O)Nc4ccc(S(=O)(=O)O)c5cc(S(=O)(=O)O)cc(S(=O)(=O)O)c45)ccc3C)c2)c1 [Suramin sodium] | 57 |  |
| COC1=C(OC)C(=O)c2ccccc2C1=O [2,3-Dimethoxy-1,4-naphthoquinone] | 98 |  |
| C[C@@](Cc1ccc(O)c(O)c1)(NN)C(=O)O [Carbidopa] | 45 |  |
| C[C@H](CCC(=O)O)[C@H]1CC[C@H]2[C@@H]3CC[C@@H]4C[C@H](O)CC[C@]4(C)[C@H]3CC[C@]12C [Lithocholic acid] | 42 |  |
| NC(Cc1cc(O)c(O)cc1O)C(=O)O (racemic) [6-Hydroxy-DL-DOPA] |  | Inhibition of CBS activity at 100 μM [1]: 77% |
| COc1cc(C(=O)NS(=O)(=O)c2ccccc2C)ccc1Cc1cn(C)c2ccc(NC(=O)OC3CCCC3)cc12 [Zafirlukast] | 81 |  |

| Compound | inhibition at 100 µM [1] [%] | further results |
| --- | --- | --- |
| O=C(O)C1=CC(=C(c2ccc(O)c(C(=O)O)c2)c2ccc(O)c(C(=O)O)c2)C=CC1=O [Aurintricarboxylic acid] | 75 |  |
| C=C(c1ccc(C(=O)O)cc1)c1cc2c(cc1C)C(C)(C)CCC2(C)C [Bexarotene] | 58 |  |
| C[C@@H](N)[C@H]1CC[C@H](C(=O)Nc2ccncc2)CC1 [Compound Y-27632] | 94 |  |
| CC1=C(/C=C/C(C)=C/C=C/C(C)=C/C(=O)O)C(C)(C)CCC1 [Retinoic acid] | 43 |  |
| C[C@H]1c2cccc(O)c2C(=O)C2=C(O)[C@]3(O)C(=O)C(C(N)=O)=C(O)[C@@H](N(C)C)[C@@H]3[C@@H](O)[C@@H]21 [Doxycycline] | 57 |  |
| COc1cccc2c1C(=O)c1c(O)c3c(c(O)c1C2=O)C[C@@](O)(C(=O)CO)C[C@@H]3O[C@H]1C[C@H](N)[C@H](O)[C@H](C)O1 [Doxorubicin] | 52 |  |
| CC[C@H](c1ccc(O)cc1)[C@@H](CC)c1ccc(O)cc1 [Hexestrol] | 50 |  |
| C[n+]1c2cc(N)ccc2cc2ccc(N)cc21 [Acriflavinium] |  | Inhibition of CBS activity at 100 μM [1]: 64% |
| Cc1c(C)c2c(c(C)c1O)CCC(C)(COc1ccc(CC3SC(=O)NC3=O)cc1)O2 (centres unmarked) [Troglitazone] | 30 |  |
| CN(C)[C@@H]1C(O)=C(C(N)=O)C(=O)[C@@]2(O)C(O)=C3C(=O)c4c(O)cccc4[C@@](C)(O)[C@H]3C[C@@H]12 [Tetracycline] | 43 |  |
| CN(N=O)c1ccc(O)c(O)c1 [Me-3,4-dephostatin] |  | Inhibition of CBS activity at 100 μM [1]: 85% |
| CN(C)[C@@H]1C(O)=C(C(N)=O)C(=O)[C@@]2(O)C(O)=C3C(=O)c4c(O)ccc(Cl)c4[C@@H](O)[C@H]3C[C@@H]12 [Demeclocycline hydrochloride] | 96 |  |
| Cl.NC[C@@H]1O[C@H](C23CC4CC(CC(C4)C2)C3)Cc2c1ccc(O)c2O [A-77636 hydrochloride] |  | Inhibition of CBS activity at 100 μM [1]: 30% |
| O=C(c1ccc(OCCN2CCCCC2)cc1)c1c(-c2ccc(O)cc2)sc2cc(O)ccc12 [Raloxifene] | 60 |  |
| CC(=O)c1c(O)c(C)c(O)c(Cc2c(O)c3c(c(C(=O)/C=C/c4ccccc4)c2O)OC(C)(C)C=C3)c1O [Rottlerin] |  | inhibition at 100 µM: 96% |
| CN1CC[C@@]2(C)c3cc(OC(=O)Nc4ccccc4)ccc3N(C)[C@@H]12 [Phenserine] | 53 |  |
